# From patent publication US20130302282A1, “Inhibitors of Hepatitis C Virus” (priority 2010, published 2013)
# Read-outs that look alike come from different tables or passages of the source.
# How the values were obtained:
# [1] = system: 1b_Huh-Luc/Neo-ET cell line (bicistronic genotype 1b replicon in Huh 7 cells); experiment: HCV 1b replicon assay, luciferase readout; assay type: cell-based, HCV genotype 1b; settings: Hepatitis C virus
# Description: Biological activity of the compounds of the invention was determined using an HCV replicon assay. The 1b_Huh-Luc/Neo-ET cell line persistently expressing a bicistronic genotype 1b replicon in Huh 7 cells was obtained from ReBLikon GMBH. This cell line was used to test compound inhibition using luciferase enzyme activity readout as a measurement of compound inhibition of replicon levels.
# On Day 1 (the day after plating), each compound is added in triplicate to the cells. Plates incubated for 72 […] prior to running the luciferase assay. Enzyme activity was measured using a Bright-Glo Kit (cat. number E2620) manufactured by Promega Corporation. The following equation was used to generate a percent control value for each compound.
# %Control=(Average Compound Value/Average Control)*100
# The EC50 value was determined using GraphPad Prism and the following equation:
# Y=Bottom+(Top−Bottom)/(1+10̂((LogIC50−X)*HillSlope))
# EC50 values of compounds are repeated several times in the replicon assay.
# HCV 1a = HCV 1a replicon assay; assay type: cell-based; settings: Hepatitis C virus; class symbol; cell marked (HCV genotype 1a replicon); read-out: Inhibition of HCV genotype 1a replicon
# Description: Compounds of the invention can inhibit multiple genotypes of HCV selected but not limited to 1a, 1h, 2a, 3a, and 4a. The EC50s are measured in the corresponding replicon assays that are similar to HCV 1b replicon assay as described above.
# The biological activity against HCV 1b, 1a, or 2a is indicated as being *, **, ***, or ****, which corresponds to EC50 ranges of EC50>1000 nM, 100 nM<EC50≦1000 nM, 10 nM<EC50≦100 nM, or EC50≦10 nM, respectively. The biological activity against HCV NS5B C316Y or S365A mutant is indicated as being […], which corresponds to EC50 ranges of EC50>1000 nM, 200 nM<EC50≦1000 nM, […], respectively.
# [2] = Huh-7, 1b_Huh-Luc/Neo-ET cell line, read-out: EC50, half-maximal inhibition of HCV 1b replication
# [3] = Huh-7, class symbol, HCV genotype 1b replicon, read-out: Inhibition of HCV genotype 1b replicon
structure (smiles),measurement,setting,value
CNC(=O)c1c(-c2ccc(Oc3ccc(F)cc3)cc2)oc2cc3c(cc12)C(C)OCCN3S(C)(=O)=O (stereo not shown) [Compound B116],EC50,[1]; [2],10 to 100 nM
same,EC50,HCV 1a,10 to 100 nM
CNC(=O)c1c(-c2ccc(F)cc2)oc2cc3c(cc12)CCCCN3S(N)(=O)=O [Compound B102],EC50,HCV 1a,100 to 1000 nM
CNC(=O)c1c(-c2ccc(F)cc2)oc2cc3c(cc12)C(C)N(C(=O)OC)CCN3S(C)(=O)=O (stereo not shown) [Compound B109],EC50,[1]; [2],10 to 100 nM
same,EC50,HCV 1a,10 to 100 nM
"CNC(=O)c1c(-c2ccc(Oc3ccc(F)cc3)cc2)oc2cc3c(cc12)[C@@H]1C[C@@H]1CCN3S(C)(=O)=O (single isomer, unassigned) [Compound B146]",EC50,[1]; [2],10 to 100 nM
same,EC50,HCV 1a,10 to 100 nM
CCCN1CCN(S(C)(=O)=O)c2cc3oc(-c4ccc(F)cc4)c(C(=O)NC)c3cc2C1C (stereo not shown) [Compound B137],EC50,[1]; [2],10 to 100 nM
same,EC50,HCV 1a,10 to 100 nM
"CNC(=O)c1c(-c2ccc(Oc3ccc(F)cc3)cc2)oc2cc3c(cc12)[C@H]1C[C@H]1CCN3S(C)(=O)=O (single isomer, unassigned) [Compound B143]",EC50,HCV 1a,100 to 1000 nM
CNC(=O)c1c(-c2ccc(F)cc2)oc2cc3c(cc12)C(CF)OCCN3S(C)(=O)=O (stereo not shown) [Compound B153],EC50,[1]; [2],10 to 100 nM
same,EC50,HCV 1a,10 to 100 nM
CNC(=O)c1c(-c2ccc(F)cc2)oc2cc3c(cc12)C(=O)CCCCN3S(C)(=O)=O [Compound B82],EC50,HCV 1a,100 to 1000 nM
[2H]C([2H])([2H])NC(=O)c1c(-c2ccc(F)cc2)oc2cc3c(cc12)C(C)CCCN3S(C)(=O)=O (stereo not shown) [Compound B121],EC50,[1]; [2],≤ 10 nM
same,EC50,HCV 1a,< 10 nM
CNC(=O)c1c(-c2ccccc2)nn2cc3c(cc12)C(C)CCCN3S(C)(=O)=O (stereo not shown) [Compound B105],EC50,HCV 1a,100 to 1000 nM
CNC(=O)c1c(-c2ccc(F)cc2)oc2cc3c(cc12)C(C)N(C(C)=O)CCN3S(C)(=O)=O (stereo not shown) [Compound B110],EC50,HCV 1a,100 to 1000 nM
CNC(=O)c1c(-c2ccc(Oc3ccc(F)cc3)cc2)oc2cc3c(cc12)[C@@H](C)OCCN3S(C)(=O)=O [Compound B117],EC50,HCV 1a,100 to 1000 nM
[2H]C([2H])([2H])NC(=O)c1c(-c2ccc(F)cc2)oc2cc3c(cc12)C(C)N(C)CCN3S(C)(=O)=O (stereo not shown) [Compound B152],EC50,HCV 1a,100 to 1000 nM
CNC(=O)c1c(-c2ccc(Oc3ccc(F)cc3)cc2)oc2cc3c(cc12)C1(CCCN3S(C)(=O)=O)CC1 [Compound B141],EC50,HCV 1a,100 to 1000 nM
CNC(=O)c1c(-c2ccc(F)cc2)oc2cc3c(cc12)CCCCN3S(=O)(=O)N(C)C [Compound B103],EC50,HCV 1a,100 to 1000 nM
CNC(=O)c1c(-c2ccc(F)cc2)oc2cc3c(cc12)C(C)OC(C(=O)NC)CN3S(C)(=O)=O (stereo not shown) [Compound B229],EC50,[1]; [2],10 to 100 nM
same,EC50,[1]; [3],10 to 100 nM
CNC(=O)c1c(-c2ccc(F)cc2)oc2cc3[nH]ccc3cc12 [Compound B25],EC50,[1]; [3],> 1000 nM
CNC(=O)c1c(-c2ccc(F)cc2OC)oc2cc3c(cc12)C(C)CCCN3S(C)(=O)=O (stereo not shown) [Compound B84],EC50,[1]; [2],10 to 100 nM
same,EC50,[1]; [3],10 to 100 nM
CNC(=O)c1c(-c2ccc(F)cc2)oc2cc3c(cc12)CCCCN3C(C)=O [Compound B80],EC50,HCV 1a,> 1000 nM
CNC(=O)c1c(-c2ccc(F)cc2)oc2cc3c(cc12)CCCCN3C(=O)OC [Compound B87],EC50,[1]; [3],100 to 1000 nM
CNC(=O)c1c(-c2ccc(Oc3ccc(F)cc3)cc2)oc2cc3c(cc12)[C@H](C)O[C@@H](CS(C)(=O)=O)CN3S(C)(=O)=O [Compound B224],EC50,[1]; [2],10 to 100 nM
same,EC50,[1]; [3],10 to 100 nM
CNC(=O)c1c(-c2ccc(F)cc2)oc2cc3c(cc12)C1(CCCCN3S(C)(=O)=O)CC1 [Compound B104],EC50,HCV 1a,100 to 1000 nM
CNC(=O)c1c(-c2ccc(Oc3ccc(F)cc3)cc2)oc2cc3c(cc12)C(C)=CCCN3S(C)(=O)=O [Compound B48],EC50,[1]; [2],10 to 100 nM
same,EC50,[1]; [3],10 to 100 nM
CNC(=O)c1c(-c2ccc(Oc3ccc(F)cc3)cc2)oc2cc3c(cc12)C(C)OC(CCS(C)(=O)=O)CN3S(C)(=O)=O (stereo not shown) [Compound B236],EC50,[1]; [2],≤ 10 nM
same,EC50,[1]; [3],< 10 nM
CNC(=O)c1c(-c2ccc(F)cc2)oc2cc3c(cc12)C(C)NCCN3S(C)(=O)=O (stereo not shown) [Compound B57],EC50,[1]; [2],10 to 100 nM
same,EC50,[1]; [3],10 to 100 nM
CNC(=O)c1c(-c2ccc(Oc3ccc(F)cc3)cc2)oc2cc3c(cc12)C1CC1CCN3S(C)(=O)=O (stereo not shown) [Compound B140],EC50,HCV 1a,100 to 1000 nM
CNC(=O)c1c(-c2ccc(F)cc2)oc2cc3c(cc12)/C(C)=C\CCCN3S(C)(=O)=O [Compound B81],EC50,HCV 1a,100 to 1000 nM
CNC(=O)c1c(-c2ccc(F)cc2)oc2cc3c(cc12)C(C)N(c1ccc(F)cc1)CCN3S(C)(=O)=O (stereo not shown) [Compound B165],EC50,[1]; [2],10 to 100 nM
same,EC50,[1]; [3],10 to 100 nM
CNC(=O)c1c(-c2ccc(F)cc2)oc2cc3c(cc12)CCCCCCN3S(C)(=O)=O [Compound B19],EC50,[1]; [2],10 to 100 nM
same,EC50,[1]; [3],10 to 100 nM
CNC(=O)c1c(-c2ccc(Oc3ccc(F)cc3)cc2)oc2cc3c(cc12)[C@H](C)O[C@H](COC(=O)[C@H](C)N)CN3S(C)(=O)=O [Compound B238],EC50,[1]; [2],≤ 10 nM
same,EC50,[1]; [3],< 10 nM
CNC(=O)c1c(-c2ccc(Oc3ccc(F)cc3)cc2)oc2cc3c(cc12)C(C)OC(CCO)CN3S(C)(=O)=O (stereo not shown) [Compound B235],EC50,[1]; [2],10 to 100 nM
same,EC50,[1]; [3],10 to 100 nM
CNC(=O)c1c(-c2ccc(F)cc2)oc2cc3c(cc12)[C@@H](C)O[C@@H](CS(C)(=O)=O)CN3S(C)(=O)=O [Compound B213],EC50,[1]; [3],> 1000 nM
C=CCN1CCN(S(C)(=O)=O)c2cc3oc(-c4ccc(F)cc4)c(C(=O)NC)c3cc2C1C (stereo not shown) [Compound B54],EC50,[1]; [2],10 to 100 nM
same,EC50,[1]; [3],10 to 100 nM
CNC(=O)c1c(-c2ccc(F)cc2)nn2cc3c(cc12)CCCCCN3S(C)(=O)=O [Compound B125],EC50,[1]; [3],10 to 100 nM
CNC(=O)c1c(-c2ccc(F)cc2)oc2cc3c(cc12)C(C)NC(=O)CN3S(C)(=O)=O (stereo not shown) [Compound B173],EC50,[1]; [2],10 to 100 nM
same,EC50,[1]; [3],10 to 100 nM
CNC(=O)c1c(-c2ccc(F)cc2)nc2cc3c(cn12)C(C)CCCN3S(C)(=O)=O (stereo not shown) [Compound B56],EC50,[1]; [3],100 to 1000 nM
"CNC(=O)c1c(-c2ccc(Oc3ccc(F)cc3)cc2)oc2cc3c(cc12)[C@H](C)N(C)C(=O)CN3S(C)(=O)=O (single isomer, unassigned) [Compound B181]",EC50,[1]; [2],10 to 100 nM
same,EC50,[1]; [3],10 to 100 nM
CNC(=O)c1c(-c2ccc(F)cc2)oc2cc3c(cc12)C(C)OC(C(=O)N(C)C)CN3S(C)(=O)=O (stereo not shown) [Compound B223],EC50,[1]; [2],10 to 100 nM
same,EC50,[1]; [3],10 to 100 nM
"CNC(=O)c1c(-c2ccc(F)cc2)nn2cc3c(cc12)[C@@H](C)CCCN3S(C)(=O)=O (single isomer, unassigned) [Compound B51]",EC50,[1]; [3],> 1000 nM
CNC(=O)c1c(-c2ccc(F)cc2)oc2cc3c(cc12)C(C)OCC(CO)N3S(C)(=O)=O (stereo not shown) [Compound B219],EC50,[1]; [2],10 to 100 nM
same,EC50,[1]; [3],10 to 100 nM
CC1OCCN(S(C)(=O)=O)c2cc3oc(-c4ccc(Oc5ccc(F)cc5)cc4)c(-c4ncc[nH]4)c3cc21 (stereo not shown) [Compound B202],EC50,[1]; [2],10 to 100 nM
same,EC50,[1]; [3],10 to 100 nM
CN(O)C(=O)c1c(-c2ccc(F)cc2)oc2cc3c(cc12)CCCCN3S(C)(=O)=O [Compound B59],EC50,[1]; [3],100 to 1000 nM
CNC(=O)c1c(-c2ccc(F)cc2)oc2cc3c(cc12)CC(C)CCN3S(C)(=O)=O (stereo not shown) [Compound B92],EC50,[1]; [2],≤ 10 nM
same,EC50,[1]; [3],< 10 nM
CNC(=O)c1c(-c2ccc(F)cc2)oc2cc3c(cc12)C(C)OCC(CS(C)(=O)=O)N3S(C)(=O)=O (stereo not shown) [Compound B225],EC50,[1]; [2],10 to 100 nM
same,EC50,[1]; [3],10 to 100 nM
"CNC(=O)c1c(-c2ccc(F)cc2)oc2cc3c(cc12)[C@@H](C)N1CCC[C@H]1CN3S(C)(=O)=O (single isomer, unassigned) [Compound B122]",EC50,HCV 1a,> 1000 nM
CNC(=O)c1c(-c2ccc(F)cc2)oc2cc3c(cc12)C(C)N(C1CC1)CCN3S(C)(=O)=O (stereo not shown) [Compound B124],EC50,[1]; [2],10 to 100 nM
same,EC50,[1]; [3],10 to 100 nM
CNC(=O)c1c(-c2ccc(F)cc2)oc2cc3c(cc12)C(C)OC(C)(C)CN3S(C)(=O)=O (stereo not shown) [Compound B183],EC50,[1]; [2],10 to 100 nM
same,EC50,[1]; [3],10 to 100 nM
